What was measured:
PRMT5 [1] = biological target: T1, PRMT5 (Homo sapiens, UniProt O14744); assay: PRMT5 IC50 assay in the presence of SAM as cofactor; assay type: biochemical
T1 construct: purchased Viva (custom protein)
Procedure, shortened: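 Results given as IC50 (μM), from which Ki follows by dividing by 1.5 in the SAM condition or by 13.5 in the MTA condition. The ratio of SAM Ki to MTA Ki indicates MTA-cooperative preference.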

PRMT5 [2] = biological target: T1, PRMT5; assay: PRMT5 IC50 assay with no cofactor; assay type: biochemical
Procedure, shortened: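 Three cofactor conditions tested for PRMT5 inhibition: none, MTA and SAM, each giving an IC50. For conversion to Ki, the MTA-condition IC50 is divided by 13.5 and the SAM-condition IC50 by 1.5, and the two Ki values are expressed as a SAM/MTA ratio.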

PRMT5 [3] = biological target: T1, PRMT5; assay: PRMT5 IC50 assay in the presence of MTA as cofactor; assay type: biochemical; settings: for IC50: PRMT5, MTA as cofactor
Procedure, shortened: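 For the SAM-containing format, dividing IC50 by 1.5 yields Ki; for the MTA-containing format the divisor is 13.5. A third format without cofactor gives IC50 alone.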

HAP1 MTAP-intact = assay: SDMA in-cell western assay, HAP1 MTAP-intact cell line; assay type: cell-based; settings: Homo sapiens
Procedure, shortened: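 IC50 values come from SDMA in-cell western staining of HAP1 cells. The MTAP-intact line carries endogenous MTAP, while its MTAP-deleted counterpart lacks MTAP entirely. A selectivity ratio of at least 3 fold marks a compound as MTAP-selective.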

HAP1 MTAP-deleted = assay: SDMA in-cell western assay, HAP1 MTAP-deleted cell line; assay type: cell-based; settings: for IC50: Homo sapiens, HAP1 MTAP-deleted cell line; for MTAP Intact/Deleted Ratio: IC50 ratio HAP1 MTAP-intact / HAP1 MTAP-deleted
Procedure, shortened: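 Readout is cellular SDMA signal by in-cell western, with IC50 values derived from it. The cells are MTAP-null HAP1, matched to an isogenic MTAP-intact HAP1 line.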

[4] = ratio between Ki in the presence of SAM and Ki in the presence of MTA
[5] = ratio between the Ki in the presence of SAM and the Ki in the presence of MTA

T1 sequence (O14744 whole entry): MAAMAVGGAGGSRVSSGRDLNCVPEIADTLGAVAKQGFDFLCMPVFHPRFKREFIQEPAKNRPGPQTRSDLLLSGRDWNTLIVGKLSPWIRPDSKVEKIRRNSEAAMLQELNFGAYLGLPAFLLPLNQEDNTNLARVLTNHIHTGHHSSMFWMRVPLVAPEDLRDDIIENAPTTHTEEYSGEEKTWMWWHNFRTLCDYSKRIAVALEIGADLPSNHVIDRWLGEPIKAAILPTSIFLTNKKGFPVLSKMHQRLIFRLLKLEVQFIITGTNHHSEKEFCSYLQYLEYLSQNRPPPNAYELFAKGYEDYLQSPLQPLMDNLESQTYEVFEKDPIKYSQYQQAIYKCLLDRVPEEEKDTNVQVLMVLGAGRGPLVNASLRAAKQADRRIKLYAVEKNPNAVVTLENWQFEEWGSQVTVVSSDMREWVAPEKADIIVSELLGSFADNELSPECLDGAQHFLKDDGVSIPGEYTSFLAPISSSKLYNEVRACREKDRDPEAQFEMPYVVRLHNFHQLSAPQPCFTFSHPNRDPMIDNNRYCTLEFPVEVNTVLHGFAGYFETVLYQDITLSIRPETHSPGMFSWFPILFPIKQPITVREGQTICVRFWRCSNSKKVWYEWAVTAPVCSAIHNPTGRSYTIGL
T1 sequence (Q9BQA1 whole entry partner): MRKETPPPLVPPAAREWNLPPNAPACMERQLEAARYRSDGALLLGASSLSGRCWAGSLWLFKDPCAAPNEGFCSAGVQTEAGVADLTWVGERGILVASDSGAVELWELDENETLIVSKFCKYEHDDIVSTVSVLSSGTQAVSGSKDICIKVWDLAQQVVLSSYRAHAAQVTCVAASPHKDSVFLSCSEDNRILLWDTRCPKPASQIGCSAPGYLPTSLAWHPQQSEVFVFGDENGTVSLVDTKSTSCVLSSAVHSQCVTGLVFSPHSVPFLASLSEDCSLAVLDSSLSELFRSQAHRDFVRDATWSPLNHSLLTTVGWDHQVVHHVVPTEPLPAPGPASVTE

SMILES	IC50 (PRMT5 [1]) [nM]	IC50 (PRMT5 [2]; read-out: No Co-factor IC50) [nM]	IC50 (PRMT5 [3]) [nM]	SAM/MTA Ratio (PRMT5 [3]; [4])	IC50 (HAP1 MTAP-intact) [nM]	IC50 (HAP1 MTAP-deleted) [nM]	MTAP Intact/Deleted Ratio (HAP1 MTAP-deleted)	IC50 (PRMT5 [2]) [nM]	SAM/MTA Ratio (PRMT5 [3]; [5])
Cc1c(OCc2cnco2)ccc2c1CCN(C[C@@H](O)CNC(=O)c1cccc(NC3COC3)c1)C2 [Compound 424, N-[(2S)-2-hydroxy-3-{5-methyl-6-[(1,3-oxazol-5-yl)methoxy]-1,2,3,4-tetrahydroisoquinolin-2-yl}propyl]-3-[(oxetan-3-yl)amino]benzamide]	500 to 5000	≥ 5000	500 to 5000	A (a Ki ratio greater than or equal to 10 fold between the Ki in the presence of SAM and the Ki in the presence of MTA)	≥ 10000	≥ 10000	C* (an IC50 ratio of less than 3 fold between the IC50 in the HAP1 MTAP-intact cell line and the HAP1 MTAP-deleted cell line)	–	–
O=C(NC[C@H](O)CN1CCc2c(ccc(OCc3cnco3)c2Cl)C1)c1ccnc(NC2CCC(F)(F)CC2)c1 [Compound 425, (S)—N-(3-(5-chloro-6-(oxazol-5-ylmethoxy)-3,4-dihydroisoquinolin-2(1H)-yl)-2-hydroxypropyl)-2-((4N-difluorocyclohexyl)amino)isonicotinamide]	50 to 500	≥ 5000	50 to 500	A (a Ki ratio greater than or equal to 10 fold between the Ki in the presence of SAM and the Ki in the presence of MTA)	≥ 10000	≥ 10000	C* (an IC50 ratio of less than 3 fold between the IC50 in the HAP1 MTAP-intact cell line and the HAP1 MTAP-deleted cell line)	–	–
CCC(=O)N1CC(Nc2cc(C(=O)NC[C@H](O)CN3CCc4c(ccc(OCc5cnco5)c4Cl)C3)ccn2)C1 [Compound 426, (S)—N-(3-(5-chloro-6-(oxazol-5-ylmethoxy)-3,4-dihydroisoquinolin-2(1H)-yl)-2-hydroxypropyl)-2-((1-propionylazetidin-3-yl)amino)isonicotinamide]	50 to 500	–	50 to 500	–	≥ 10000	≥ 10000	C* (an IC50 ratio of less than 3 fold between the IC50 in the HAP1 MTAP-intact cell line and the HAP1 MTAP-deleted cell line)	500 to 5000	A (a Ki ratio greater than or equal to 10 fold between the Ki in the presence of SAM and the Ki in the presence of MTA)
Cc1c(OCc2cnco2)ccc2c1CCN(C[C@@H](O)CNC(=O)c1ccnc(NC3CCN(C(=O)C(C)C)CC3)c1)C2 [Compound 427]	50 to 500	–	50 to 500	–	≥ 10000	1000 to 10000	B* (an IC50 ratio greater than or equal to 3 fold but lower than 10 fold between the IC50 in the HAP1 MTAP-intact cell line and the HAP1 MTAP-deleted cell line)	500 to 5000	A (a Ki ratio greater than or equal to 10 fold between the Ki in the presence of SAM and the Ki in the presence of MTA)
Cc1ncoc1COc1ccc2c(c1)CCN(C[C@@H](O)CNC(=O)c1cc(NC3CCC3)nc(N3CCN(C(C)C)CC3)c1)C2 [Compound 428, 2-(cyclobutylamino)-N-[(2S)-2-hydroxy-3-{6-[(4-methyl-1,3-oxazol-5-yl)methoxy]-1,2,3,4-tetrahydroisoquinolin-2-yl}propyl]-6-[4-(propan-2-yl)piperazin-1-yl]pyridine-4-carboxamide]	50 to 500	–	< 50	–	≥ 10000	≥ 10000	C* (an IC50 ratio of less than 3 fold between the IC50 in the HAP1 MTAP-intact cell line and the HAP1 MTAP-deleted cell line)	500 to 5000	A (a Ki ratio greater than or equal to 10 fold between the Ki in the presence of SAM and the Ki in the presence of MTA)
CC(=O)N1CCC(Nc2cc(C(=O)NC[C@H](O)CN3CCc4c(ccc(OCc5cnco5)c4Cl)C3)ccn2)CC1 [Compound 429]	50 to 500	–	50 to 500	–	≥ 10000	1000 to 10000	B* (an IC50 ratio greater than or equal to 3 fold but lower than 10 fold between the IC50 in the HAP1 MTAP-intact cell line and the HAP1 MTAP-deleted cell line)	500 to 5000	A (a Ki ratio greater than or equal to 10 fold between the Ki in the presence of SAM and the Ki in the presence of MTA)
CS(=O)(=O)N1CCC(Nc2cc(C(=O)NC[C@H](O)CN3CCc4cc(OCc5cnco5)ccc4C3)ccn2)CC1 [Compound 430, N-[(2S)-2-hydroxy-3-[6-(oxazol-5-ylmethoxy)-3,4-dihydro-1H-isoquinolin-2-yl]propyl]-2-[(1-methylsulfonyl-4-piperidyl)amino]pyridine-4-carboxamide]	50 to 500	–	50 to 500	–	≥ 10000	1000 to 10000	C* (an IC50 ratio of less than 3 fold between the IC50 in the HAP1 MTAP-intact cell line and the HAP1 MTAP-deleted cell line)	500 to 5000	A (a Ki ratio greater than or equal to 10 fold between the Ki in the presence of SAM and the Ki in the presence of MTA)
CCCC(=O)N1CCC(Nc2cc(C(=O)NC[C@H](O)CN3CCc4cc(OCc5cnco5)ccc4C3)ccn2)CC1 [Compound 431, 2-[(1-butanoyl-4-piperidyl)amino]-N-[(2S)-2-hydroxy-3-[6-(oxazol-5-ylmethoxy)-3,4-dihydro-1H-isoquinolin-2-yl]propyl]pyridine-4-carboxamide]	50 to 500	–	50 to 500	–	1000 to 10000	< 1000	B* (an IC50 ratio greater than or equal to 3 fold but lower than 10 fold between the IC50 in the HAP1 MTAP-intact cell line and the HAP1 MTAP-deleted cell line)	500 to 5000	A (a Ki ratio greater than or equal to 10 fold between the Ki in the presence of SAM and the Ki in the presence of MTA)
CC(C)(C)C(=O)N1CCC(Nc2cc(C(=O)NC[C@H](O)CN3CCc4c(ccc(OCc5cnco5)c4Cl)C3)ccn2)CC1 [Compound 432, (S)—N-(3-(5-chloro-6-(oxazol-5-ylmethoxy)-3,4-dihydroisoquinolin-2(1H)-yl)-2-hydroxypropyl)-2-((1-pivaloylpiperidin-4-yl)amino)isonicotinamide]	50 to 500	–	50 to 500	–	≥ 10000	1000 to 10000	B* (an IC50 ratio greater than or equal to 3 fold but lower than 10 fold between the IC50 in the HAP1 MTAP-intact cell line and the HAP1 MTAP-deleted cell line)	500 to 5000	A (a Ki ratio greater than or equal to 10 fold between the Ki in the presence of SAM and the Ki in the presence of MTA)
O=C(NC[C@H](O)CN1CCc2cc(OCc3cnco3)ccc2C1)c1ccnc(NC2CCN(C(=O)C3CCC3)CC2)c1 [Compound 433, 2-[[1-(cyclobutanecarbonyl)-4-piperidyl]amino]-N-[(2S)-2-hydroxy-3-[6-(oxazol-5-ylmethoxy)-3N-dihydro-1H-isoquinolin-2-yl]propyl]pyridine-4-carboxamide]	50 to 500	–	50 to 500	–	1000 to 10000	< 1000	B* (an IC50 ratio greater than or equal to 3 fold but lower than 10 fold between the IC50 in the HAP1 MTAP-intact cell line and the HAP1 MTAP-deleted cell line)	500 to 5000	A (a Ki ratio greater than or equal to 10 fold between the Ki in the presence of SAM and the Ki in the presence of MTA)
CCCC(=O)N1CC(Nc2cc(C(=O)NC[C@H](O)CN3CCc4cc(OCc5cnco5)ccc4C3)ccn2)C1 [Compound 434]	50 to 500	–	50 to 500	–	1000 to 10000	< 1000	C* (an IC50 ratio of less than 3 fold between the IC50 in the HAP1 MTAP-intact cell line and the HAP1 MTAP-deleted cell line)	≥ 5000	A (a Ki ratio greater than or equal to 10 fold between the Ki in the presence of SAM and the Ki in the presence of MTA)
Cc1ncoc1COc1ccc2c(c1C)CCN(C[C@@H](O)CNC(=O)c1cc(NC3COC3)nc(N3CCN(C(C)(C)C)CC3)n1)C2 [Compound 435, 2-(4-tert-butylpiperazin-1-yl)-N-[(2S)-2-hydroxy-3-{5-methyl-6-[(4-methyl-1,3-oxazol-5-yl)methoxy]-1,2,3,4-tetrahydroisoquinolin-2-yl}propyl]-6-[(oxetan-3-yl)amino]pyrimidine-4-carboxamide]	50 to 500	–	50 to 500	–	≥ 10000	≥ 10000	C* (an IC50 ratio of less than 3 fold between the IC50 in the HAP1 MTAP-intact cell line and the HAP1 MTAP-deleted cell line)	≥ 5000	A (a Ki ratio greater than or equal to 10 fold between the Ki in the presence of SAM and the Ki in the presence of MTA)
Cc1c(OCc2cnco2)ccc2c1CCN(C[C@@H](O)CNC(=O)c1cc(NC3CCCCC3)ncn1)C2 [Compound 436, 6-(cyclohexylamino)-N-[(2S)-2-hydroxy-3-{5-methyl-6-[(1,3-oxazol-5-yl)methoxy]-1,2,3,4-tetrahydroisoquinolin-2-yl}propyl]pyrimidine-4-carboxamide]	500 to 5000	–	500 to 5000	–	≥ 10000	≥ 10000	C* (an IC50 ratio of less than 3 fold between the IC50 in the HAP1 MTAP-intact cell line and the HAP1 MTAP-deleted cell line)	≥ 5000	A (a Ki ratio greater than or equal to 10 fold between the Ki in the presence of SAM and the Ki in the presence of MTA)

From patent US11986471B2, “Compounds and methods of use” (Tango Therapeutics, Inc., priority 2018, dated 2024)
